Assay results: PMC9481570, “A small molecule antagonist of SMN disrupts the interaction between SMN and RNAP II” (Nature Communications, 2022)

Experiments:
ZGPAT = target: T1, ZGPAT (Homo sapiens, UniProt Q8N5A5); test: ITC binding to ZGPAT; details: Fig. 1c
T1 construct: ZGPAT (aa 120–271); His (N, cleaved yes); made in house; host or cells: E. coli BL21 (DE3) Codon plus RIL
Description: (§1) The coding DNA fragments of following Tudor domains were cloned into pET28-MHL vector: SMN (aa 82–147), UHRF1 (aa 126–285), SMNDC1 (aa 53–130), TDRD3 (aa 554–611), SND1 (aa 650–910), TDRD2 (aa 327–420), FXR1 (aa 2–132), PHF1 (aa 28–87), SGF29 (aa 115–293), JMJD2A (aa 897–1101), 53BP1 (aa 1483–1606), SETDB1 (aa 190–410), LBR (aa 1–67), ZGPAT (aa 120–271). The coding regions of chromodomain of CBX7 (aa 8–62), PWWP domain of DNMT3A (aa 275–417), WD40 repeats of WDR5 (aa 24–334) and CW domain of ZCWPW2 (aa 21–78) were also subcloned into pET28-MHL vector to generate N-terminally His-tagged fusion protein. The MBT repeats of L3MBTL1 (aa 200–522) and L3MBTL2 (aa 170–625) were subcloned into pET28GST-LIC vector to generate N-terminally GST-His-tagged fusion protein. All the plasmids were generated by ligase independent cloning (Vazyme Biotech, C112 or ABclonal Technology, RK21020). […] The molecular weight of all protein samples was measured by mass spectrometry.
(§2) For the ITC measurement, the concentrated proteins were diluted into 20 mM Tris-HCl, pH 7.5, 150 mM NaCl (ITC buffer); the lyophilized compounds were dissolved in the same buffer, and the pH value was adjusted by adding 2 M NaOH or 2 M HCl. […] Compound concentrations were calculated from the mass and the volume of the solvent. […]

DNMT3A (PWWP) = target: T2, DNMT3A (PWWP) (Homo sapiens, UniProt Q9Y6K1); test: ITC binding to PWWP domain of DNMT3A; details: Fig. 1c
T2 construct: DNMT3A (aa 275–417); His (N, cleaved yes); made in house; host or cells: E. coli BL21 (DE3) Codon plus RIL
Description: as §1, §2

SMN_Y127F = target: T3, SMN_Y127F (Homo sapiens, UniProt Q16637, Y127F); test: ITC binding to SMN Tudor mutant Y127F; details: Fig. 3d
T3 construct: cloned into pET28-MHL vector: SMN (aa 82–147); His (N, cleaved yes); made in house; host or cells: E. coli BL21 (DE3) Codon plus RIL
Description: as §1, §2

[1] = system: UHRF1_TTD R296-binding pocket mutants; test: ITC binding to UHRF1 TTD R296-binding pocket mutants; details: Supplementary Fig. 9e
Description: as §1, §2

T2 sequence (Q9Y6K1 275-417): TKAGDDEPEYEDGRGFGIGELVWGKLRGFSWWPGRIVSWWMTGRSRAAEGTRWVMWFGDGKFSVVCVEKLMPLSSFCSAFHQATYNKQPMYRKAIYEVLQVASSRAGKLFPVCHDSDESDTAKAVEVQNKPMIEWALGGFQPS
T3 sequence (Q16637 82-147 Y127F): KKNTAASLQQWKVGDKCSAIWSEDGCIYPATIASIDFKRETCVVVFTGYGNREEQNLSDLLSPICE
T1 sequence (Q8N5A5 120-271): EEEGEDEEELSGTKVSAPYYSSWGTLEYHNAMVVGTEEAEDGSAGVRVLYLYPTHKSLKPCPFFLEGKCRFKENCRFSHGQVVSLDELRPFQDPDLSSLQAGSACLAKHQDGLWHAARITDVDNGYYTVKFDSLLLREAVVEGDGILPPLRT

With `Cn1c2c(c(=N)c3c1CCC3)CCC2` [Compound 1, 4-methyl-2,3,4,5,6,7-hexahydrodicyclopenta[b,e]pyridin-8(1H)-imine] the Kd (ZGPAT) was > 244 µM, the Kd (DNMT3A (PWWP)) was > 244 µM and the Kd (SMN_Y127F) was 4 ± 0.2 µM. The “binding to UHRF1_TTD R296-binding pocket mutants” value [1] was “totally disrupted”.
